The conditions of this series: on exposure to air; "stable" = non-hygroscopic, does not pick up moisture even in a highly humid atmosphere. The text has this: According to another aspect of the present invention, there is provided anhydrous bosentan.

`COc1ccccc1Oc1c(NS(=O)(=O)c2ccc(C(C)(C)C)cc2)nc(-c2ncccn2)nc1OCCO` [Form B, Bosentan Form B]: the “stability / hygroscopicity (moisture pick-up)” value is “stable and non-hygroscopic”.

(Values after US8481730B2, “Method of synthesis of Bosentan, its polymorphic forms and its salts” (CIPLA Limited, priority 2008, dated 2013).)
